Results as given in the supplement of paper PMC10307832.

Legend:
Test in all cases: relative viability (nuclei count vs DMSO), 5 days (fraction); higher = more cells survive
IPA-3 + Trametinib = compound: C1=CC=C2C(=C1)C=CC(=C2SSC3=C(C=CC4=CC=CC=C43)O)O [IPA-3] + CC(=O)Nc1cccc(-n2c(=O)n(C3CC3)c(=O)c3c(Nc4ccc(I)cc4F)n(C)c(=O)c(C)c32)c1 [Trametinib] (partner 0.02 µM)
Procedure, shortened: (§1)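 A single step with final 0.05% Triton X-100, 1% formaldehyde and 1 ug/ml Hoechst fixed the cells and stained nuclei 5 days after treatment. Lung cancer cell lines in 1536-well plates had been treated by pin tool the day after seeding with one drug alone or a fixed anchor-drug dose plus five library-drug doses (not always all listed) in √10 steps, and nuclei were counted on 4× images. Relative viability is the ratio of nuclei in treated wells to nuclei in vehicle wells, taken as the median of duplicate plates.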

IPA-3 + OSI-027 = compound: C1=CC=C2C(=C1)C=CC(=C2SSC3=C(C=CC4=CC=CC=C43)O)O [IPA-3] + COc1cccc2cc(-c3nc([C@H]4CC[C@H](C(=O)O)CC4)n4ncnc(N)c34)[nH]c12 [OSI-027] (partner 0.5 µM)
Procedure, shortened: as §1

IPA-3 + Dasatinib = compound: C1=CC=C2C(=C1)C=CC(=C2SSC3=C(C=CC4=CC=CC=C43)O)O [IPA-3] + Cc1nc(Nc2ncc(C(=O)Nc3c(C)cccc3Cl)s2)cc(N2CCN(CCO)CC2)n1 [Dasatinib] (partner 0.075 µM)
Procedure, shortened: as §1

Doramapimod + Linsitinib = compound: Cc1ccc(-n2nc(C(C)(C)C)cc2NC(=O)Nc2ccc(OCCN3CCOCC3)c3ccccc23)cc1 [Doramapimod] + C[C@]1(O)C[C@@H](c2nc(-c3ccc4ccc(-c5ccccc5)nc4c3)c3c(N)nccn32)C1 [Linsitinib] (partner 1 µM)
Procedure, shortened: as §1

UMC-11
relative viability (IPA-3 + Trametinib; first compound 0.2 µM): 0.804
relative viability (IPA-3 + Trametinib; first compound 0.6325 µM): 0.666
relative viability (IPA-3 + Trametinib; first compound 2 µM): 0.677
relative viability (IPA-3 + Trametinib; first compound 6.325 µM): 0.6
relative viability (IPA-3 + Trametinib; first compound 20 µM): 0.794
relative viability (IPA-3 + OSI-027; first compound 0.2 µM): 0.5
relative viability (IPA-3 + OSI-027; first compound 0.6325 µM): 0.49
relative viability (IPA-3 + OSI-027; first compound 2 µM): 0.426
relative viability (IPA-3 + OSI-027; first compound 6.325 µM): 0.458
relative viability (IPA-3 + OSI-027; first compound 20 µM): 0.502
relative viability (IPA-3 + Dasatinib; first compound 0.2 µM): 0.605
relative viability (IPA-3 + Dasatinib; first compound 0.6325 µM): 0.421
relative viability (IPA-3 + Dasatinib; first compound 2 µM): 0.483
relative viability (IPA-3 + Dasatinib; first compound 6.325 µM): 0.446
relative viability (IPA-3 + Dasatinib; first compound 20 µM): 0.489
relative viability (Doramapimod + Linsitinib; first compound 0.02 µM): 0.946
relative viability (Doramapimod + Linsitinib; first compound 0.06325 µM): 0.992
relative viability (Doramapimod + Linsitinib; first compound 0.2 µM): 1.03
relative viability (Doramapimod + Linsitinib; first compound 0.6325 µM): 1
relative viability (Doramapimod + Linsitinib; first compound 2 µM): 0.718
